± gives the expanded uncertainty stated by the source.
Conditions: Liquid, Vibrating tube method

CCCCCC [hexane]
mass density (313.12 K, 1019 kPa): 642.2 ± 0.4 kg/m3 | mass density (313.12 K, 2044 kPa): 643.5 ± 0.5 kg/m3 | mass density (313.12 K, 3023 kPa): 644.6 ± 0.5 kg/m3 | mass density (313.12 K, 4018 kPa): 645.8 ± 0.5 kg/m3 | mass density (313.12 K, 5016 kPa): 647 ± 0.5 kg/m3 | mass density (313.12 K, 6012 kPa): 648.1 ± 0.5 kg/m3 | mass density (313.12 K, 7016 kPa): 649.2 ± 0.5 kg/m3 | mass density (313.12 K, 8016 kPa): 650.3 ± 0.5 kg/m3 | mass density (313.12 K, 9020 kPa): 651.4 ± 0.5 kg/m3 | mass density (313.12 K, 10018 kPa): 652.5 ± 0.5 kg/m3 | mass density (313.12 K, 11020 kPa): 653.5 ± 0.5 kg/m3 | mass density (313.12 K, 12004 kPa): 654.6 ± 0.5 kg/m3 | mass density (313.12 K, 13007 kPa): 655.6 ± 0.5 kg/m3 | mass density (313.12 K, 14015 kPa): 656.6 ± 0.5 kg/m3 | mass density (313.12 K, 15006 kPa): 657.6 ± 0.5 kg/m3 | mass density (313.12 K, 16023 kPa): 658.6 ± 0.5 kg/m3 | mass density (313.12 K, 17015 kPa): 659.6 ± 0.6 kg/m3 | mass density (313.12 K, 18011 kPa): 660.5 ± 0.6 kg/m3 | mass density (313.12 K, 19009 kPa): 661.4 ± 0.6 kg/m3 | mass density (313.12 K, 20016 kPa): 662.4 ± 0.6 kg/m3 | mass density (313.12 K, 20995 kPa): 663.3 ± 0.6 kg/m3 | mass density (313.12 K, 22018 kPa): 664.2 ± 0.6 kg/m3 | mass density (313.12 K, 23018 kPa): 665.1 ± 0.6 kg/m3 | mass density (313.12 K, 24013 kPa): 666 ± 0.6 kg/m3 | mass density (313.12 K, 25002 kPa): 666.8 ± 0.6 kg/m3 | mass density (323.05 K, 1030 kPa): 633 ± 0.5 kg/m3 | mass density (323.05 K, 2010 kPa): 634.3 ± 0.5 kg/m3 | mass density (323.05 K, 3021 kPa): 635.6 ± 0.5 kg/m3 | mass density (323.05 K, 4018 kPa): 636.9 ± 0.5 kg/m3 | mass density (323.05 K, 5014 kPa): 638.1 ± 0.5 kg/m3 | mass density (323.05 K, 6007 kPa): 639.4 ± 0.5 kg/m3 | mass density (323.05 K, 7010 kPa): 640.6 ± 0.5 kg/m3 | mass density (323.05 K, 8012 kPa): 641.8 ± 0.5 kg/m3 | mass density (323.05 K, 9020 kPa): 643 ± 0.5 kg/m3 | mass density (323.05 K, 10008 kPa): 644.1 ± 0.5 kg/m3 | mass density (323.05 K, 11021 kPa): 645.2 ± 0.5 kg/m3 | mass density (323.05 K, 12011 kPa): 646.4 ± 0.5 kg/m3 | mass density (323.05 K, 13007 kPa): 647.4 ± 0.5 kg/m3 | mass density (323.05 K, 14007 kPa): 648.5 ± 0.5 kg/m3 | mass density (323.05 K, 15035 kPa): 649.6 ± 0.5 kg/m3 | mass density (323.05 K, 16011 kPa): 650.6 ± 0.5 kg/m3 | mass density (323.05 K, 17021 kPa): 651.6 ± 0.6 kg/m3 | mass density (323.05 K, 18020 kPa): 652.7 ± 0.6 kg/m3 | mass density (323.05 K, 19013 kPa): 653.7 ± 0.6 kg/m3 | mass density (323.05 K, 20001 kPa): 654.6 ± 0.6 kg/m3 | mass density (323.05 K, 21028 kPa): 655.6 ± 0.6 kg/m3 | mass density (323.05 K, 22004 kPa): 656.6 ± 0.6 kg/m3 | mass density (323.05 K, 23010 kPa): 657.5 ± 0.6 kg/m3 | mass density (323.05 K, 24021 kPa): 658.5 ± 0.6 kg/m3 | mass density (323.05 K, 25018 kPa): 659.4 ± 0.6 kg/m3 | mass density (332.85 K, 1020 kPa): 623.5 ± 0.5 kg/m3 | mass density (332.85 K, 2021 kPa): 625 ± 0.5 kg/m3 | mass density (332.85 K, 3022 kPa): 626.5 ± 0.5 kg/m3 | mass density (332.85 K, 4020 kPa): 627.8 ± 0.5 kg/m3 | mass density (332.85 K, 5011 kPa): 629.2 ± 0.5 kg/m3 | mass density (332.85 K, 6016 kPa): 630.6 ± 0.5 kg/m3 | mass density (332.85 K, 7012 kPa): 631.9 ± 0.5 kg/m3 | mass density (332.85 K, 8025 kPa): 633.3 ± 0.5 kg/m3 | mass density (332.85 K, 9012 kPa): 634.5 ± 0.5 kg/m3 | mass density (332.85 K, 10010 kPa): 635.7 ± 0.5 kg/m3 | mass density (332.85 K, 11012 kPa): 636.9 ± 0.5 kg/m3 | mass density (332.85 K, 12019 kPa): 638.1 ± 0.5 kg/m3 | mass density (332.85 K, 13007 kPa): 639.2 ± 0.5 kg/m3 | mass density (332.85 K, 14021 kPa): 640.4 ± 0.5 kg/m3 | mass density (332.85 K, 15014 kPa): 641.6 ± 0.5 kg/m3 | mass density (332.85 K, 16025 kPa): 642.8 ± 0.6 kg/m3 | mass density (332.85 K, 17011 kPa): 643.8 ± 0.6 kg/m3 | mass density (332.85 K, 18035 kPa): 644.9 ± 0.6 kg/m3 | mass density (332.85 K, 19014 kPa): 646 ± 0.6 kg/m3 | mass density (332.85 K, 20011 kPa): 647.1 ± 0.6 kg/m3 | mass density (332.85 K, 21015 kPa): 648.1 ± 0.6 kg/m3 | mass density (332.85 K, 22000 kPa): 649.1 ± 0.6 kg/m3 | mass density (332.85 K, 23012 kPa): 650.1 ± 0.6 kg/m3 | mass density (332.85 K, 24022 kPa): 651.2 ± 0.6 kg/m3 | mass density (332.85 K, 25030 kPa): 652.2 ± 0.6 kg/m3 | mass density (342.73 K, 1010 kPa): 613.9 ± 0.5 kg/m3 | mass density (342.73 K, 2010 kPa): 615.5 ± 0.5 kg/m3 | mass density (342.73 K, 3011 kPa): 617.1 ± 0.5 kg/m3 | mass density (342.73 K, 4010 kPa): 618.6 ± 0.5 kg/m3 | mass density (342.73 K, 5005 kPa): 620 ± 0.5 kg/m3 | mass density (342.73 K, 6031 kPa): 621.6 ± 0.5 kg/m3 | mass density (342.73 K, 7020 kPa): 623 ± 0.5 kg/m3 | mass density (342.73 K, 8009 kPa): 624.4 ± 0.5 kg/m3 | mass density (342.73 K, 9015 kPa): 625.7 ± 0.5 kg/m3 | mass density (342.73 K, 10012 kPa): 627 ± 0.5 kg/m3 | mass density (342.73 K, 11006 kPa): 628.4 ± 0.5 kg/m3 | mass density (342.73 K, 12014 kPa): 629.7 ± 0.5 kg/m3 | mass density (342.73 K, 13011 kPa): 630.9 ± 0.5 kg/m3 | mass density (342.73 K, 14014 kPa): 632.2 ± 0.5 kg/m3 | mass density (342.73 K, 15008 kPa): 633.4 ± 0.6 kg/m3 | mass density (342.73 K, 16006 kPa): 634.6 ± 0.6 kg/m3 | mass density (342.73 K, 17021 kPa): 635.7 ± 0.6 kg/m3 | mass density (342.73 K, 18016 kPa): 636.9 ± 0.6 kg/m3 | mass density (342.73 K, 19025 kPa): 638 ± 0.6 kg/m3 | mass density (342.73 K, 20037 kPa): 639.2 ± 0.6 kg/m3 | mass density (342.73 K, 21025 kPa): 640.3 ± 0.6 kg/m3 | mass density (342.73 K, 22016 kPa): 641.3 ± 0.6 kg/m3 | mass density (342.73 K, 23010 kPa): 642.5 ± 0.6 kg/m3 | mass density (342.73 K, 24023 kPa): 643.5 ± 0.6 kg/m3 | mass density (342.73 K, 25006 kPa): 644.5 ± 0.6 kg/m3 | mass density (352.56 K, 1017 kPa): 604 ± 0.5 kg/m3 | mass density (352.56 K, 2028 kPa): 605.8 ± 0.5 kg/m3 | mass density (352.56 K, 3030 kPa): 607.6 ± 0.5 kg/m3 | mass density (352.56 K, 4024 kPa): 609.2 ± 0.5 kg/m3 | mass density (352.56 K, 5022 kPa): 610.9 ± 0.5 kg/m3 | mass density (352.56 K, 6024 kPa): 612.5 ± 0.5 kg/m3 | mass density (352.56 K, 7027 kPa): 614 ± 0.5 kg/m3 | mass density (352.56 K, 8021 kPa): 615.5 ± 0.5 kg/m3 | mass density (352.56 K, 9022 kPa): 617 ± 0.5 kg/m3 | mass density (352.56 K, 10020 kPa): 618.4 ± 0.5 kg/m3 | mass density (352.56 K, 11023 kPa): 619.9 ± 0.5 kg/m3 | mass density (352.56 K, 12003 kPa): 621.2 ± 0.5 kg/m3 | mass density (352.56 K, 13021 kPa): 622.6 ± 0.5 kg/m3 | mass density (352.56 K, 14012 kPa): 623.9 ± 0.5 kg/m3 | mass density (352.56 K, 15007 kPa): 625.2 ± 0.6 kg/m3 | mass density (352.56 K, 16016 kPa): 626.5 ± 0.6 kg/m3 | mass density (352.56 K, 17012 kPa): 627.7 ± 0.6 kg/m3 | mass density (352.56 K, 18015 kPa): 629 ± 0.6 kg/m3 | mass density (352.56 K, 19003 kPa): 630.2 ± 0.6 kg/m3 | mass density (352.56 K, 20040 kPa): 631.4 ± 0.6 kg/m3 | mass density (352.56 K, 21005 kPa): 632.5 ± 0.6 kg/m3 | mass density (352.56 K, 22035 kPa): 633.8 ± 0.6 kg/m3 | mass density (352.56 K, 23002 kPa): 634.8 ± 0.6 kg/m3 | mass density (352.56 K, 24039 kPa): 636 ± 0.6 kg/m3 | mass density (352.56 K, 25000 kPa): 637.1 ± 0.6 kg/m3 | mass density (362.4 K, 1029 kPa): 593.8 ± 0.5 kg/m3 | mass density (362.4 K, 2020 kPa): 595.8 ± 0.5 kg/m3 | mass density (362.4 K, 3028 kPa): 597.6 ± 0.5 kg/m3 | mass density (362.4 K, 4029 kPa): 599.5 ± 0.5 kg/m3 | mass density (362.4 K, 5040 kPa): 601.3 ± 0.5 kg/m3 | mass density (362.4 K, 6026 kPa): 602.9 ± 0.5 kg/m3 | mass density (362.4 K, 7026 kPa): 604.7 ± 0.5 kg/m3 | mass density (362.4 K, 8004 kPa): 606.3 ± 0.5 kg/m3 | mass density (362.4 K, 9007 kPa): 607.9 ± 0.5 kg/m3 | mass density (362.4 K, 10009 kPa): 609.4 ± 0.5 kg/m3 | mass density (362.4 K, 11009 kPa): 610.9 ± 0.5 kg/m3 | mass density (362.4 K, 12010 kPa): 612.5 ± 0.5 kg/m3 | mass density (362.4 K, 13000 kPa): 614 ± 0.5 kg/m3 | mass density (362.4 K, 14028 kPa): 615.5 ± 0.6 kg/m3 | mass density (362.4 K, 15017 kPa): 616.8 ± 0.6 kg/m3 | mass density (362.4 K, 16014 kPa): 618.1 ± 0.6 kg/m3 | mass density (362.4 K, 17004 kPa): 619.5 ± 0.6 kg/m3 | mass density (362.4 K, 18002 kPa): 620.9 ± 0.6 kg/m3 | mass density (362.4 K, 18988 kPa): 622.1 ± 0.6 kg/m3 | mass density (362.4 K, 20027 kPa): 623.4 ± 0.6 kg/m3 | mass density (362.4 K, 21002 kPa): 624.7 ± 0.6 kg/m3 | mass density (362.4 K, 22018 kPa): 625.9 ± 0.6 kg/m3 | mass density (362.4 K, 23013 kPa): 627.1 ± 0.6 kg/m3 | mass density (362.4 K, 24001 kPa): 628.4 ± 0.6 kg/m3 | mass density (362.4 K, 25000 kPa): 629.5 ± 0.6 kg/m3

From the NIST ThermoML archive (doi:10.1021/je7003929)
